Laboratory results as given in publication PMC3477139 (PLoS ONE, 2012).

Columns and labels:
[1] = system: GLP-1R; details: ref [7]; cited from earlier work
[2] = biological target: T1, human GLP-1R (Homo sapiens, UniProt P43220); experiment: Intracellular Ca2+ signaling in fluo-4-loaded HEK-GLP-1R cells; type: cell-based
T1 construct: expressed in transfected cells; vector pcDNA5/FRT
Method: (§1) Concentration-response curves were fitted using GraphPad Prism (GraphPad Software Inc., CA) using a standard four parameter logistic equation. All data are representative of n≥3 or are presented as mean+/±s.e.m., where n = 3 unless otherwise stated. Statistical analysis was by oneway ANOVA and where P<0.05, followed by Bonferroni's or Dunnett's multiple range test as indicated. Alternatively analysis was performed by Student's t-test. Where potency estimates are given these are pEC50 values (−log10 of the molar concentration giving 50% of the maximal response).

[3] = system: adenylyl cyclase; experiment: cAMP generation by direct activation of adenylyl cyclase with forskolin; type: biochemical; details: data not shown
Method: Generation of cAMP by cell membranes was determined based on previously published methods, [21]. Membranes were prepared from confluent cell monolayers grown in 80 cm^2 flasks. Cells were washed with 5 ml HBS (154 mM NaCl, 10 mM HEPES, pH 7.4, 37°C), detached using harvesting buffer (154 mM NaCl, 10 mM HEPES, 5.4 mM EDTA, pH 7.4, 37°C) and collected by centrifugation (200 g, 2 min, 4°C). The cell pellet was resuspended in 1 ml of homogenization buffer (10 mM HEPES, 10 mM EDTA, pH 7.4) and sonicated (Sonifier Ultrasonic Cell Disruptor; Branson, CT) at 30% of the maximal amplitude for 3×5 s at ∼30 s intervals before centrifugation (30,000 g, 4°C, 10 min). After removal of the supernatant, pellets were collected in resuspension buffer (10 mM HEPES, 0.1 mM EDTA, pH 7.4), protein concentration adjusted to 1 mg/ml and stored in aliquots at −80°C until assay. Generation of cAMP was determined in 100 µl containing: 10 mM HEPES, 12 mM MgCl2, 60 mM NaCl, 1.2 mM EDTA, 1.2% w/v BSA, 5% DMSO, 480 µM ATP, 2 mM IBMX, 10 µM GTP, 20 µg membrane and ligands as indicated. […]
(§2) The cAMP was extracted from either intact cell or membrane preparations using a method identical to that for extraction of Ins(1,4,5)P3 [22]. Levels of cAMP were then determined by a competitive radioreceptor assay using binding protein purified from bovine adrenal glands and related to cellular protein assessed by Bradford assay.

[4] = system: GLP-1R; details: cited from earlier work
Text: Such proteolysis is thought to remove biological activity.

[5] = biological target: T2, GLP-1R (native, rat insulinoma cell line INS-1E) (Rattus norvegicus, UniProt P32301); experiment: ERK activation (phospho-ERK Western blot) in INS-1E cells; type: cell-based; details: single ligands, 5 min; much lower concentrations of GLP-1 7–36 amide required
T2 construct: the rat insulinoma cell line, INS-1E, with native expression of the GLP-1R; endogenous in cells; host or cells: INS-1E rat insulinoma cells (gift of Prof. C.B. Wollheim)
T2 sequence (P32301 22-463): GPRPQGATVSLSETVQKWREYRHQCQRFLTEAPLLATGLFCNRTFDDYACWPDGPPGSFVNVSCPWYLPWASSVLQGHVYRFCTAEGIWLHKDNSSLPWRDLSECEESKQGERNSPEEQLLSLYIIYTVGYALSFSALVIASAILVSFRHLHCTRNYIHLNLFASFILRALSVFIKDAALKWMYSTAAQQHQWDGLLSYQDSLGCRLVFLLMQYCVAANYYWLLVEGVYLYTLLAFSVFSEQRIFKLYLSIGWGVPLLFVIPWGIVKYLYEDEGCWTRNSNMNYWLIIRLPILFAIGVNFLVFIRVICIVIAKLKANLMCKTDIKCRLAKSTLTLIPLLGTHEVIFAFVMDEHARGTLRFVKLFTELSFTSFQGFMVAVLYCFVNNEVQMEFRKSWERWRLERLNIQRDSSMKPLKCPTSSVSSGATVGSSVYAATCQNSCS
Method: HEK-Flp-In cells with stable recombinant expression of the human GLP-1R (HEK-GLP-1R) were cultured in DMEM with high glucose supplemented with 10% FBS, 100 µg/ml streptomycin and 100 units/ml penicillin sulphate. These cells were originally generated by transfection of HEK-Flp-In cells (Invitrogen: Paisley, U.K.) with pcDNA5/FRT containing the human GLP-1R. […] INS-1E cells were kindly provided by Prof. C.B. Wollheim of the University of Geneva, Switzerland [19]. These cells were used between passages 65–90 and cultured in RPMI media containing 11.1 mM glucose, 5% heat-inactivated FBS, 100 µg/ml streptomycin, 100 units/ml penicillin sulphate, 100 units/ml neomycin, 50 µM β-mercaptoethanol, 10 mM HEPES and 1 mM sodium pyruvate. All cells were cultured at 37°C in a 5% CO2 humidified atmosphere and passaged at confluence.
as §1

[6] = biological target: T1, human GLP-1R; experiment: cAMP generation by membranes from HEK-GLP-1R cells; type: biochemical; details: 5 min, 30°C, IBMX
Method: as §2, §1

[7] = biological target: T1, human GLP-1R; experiment: ERK activation (phospho-ERK Western blot) in HEK-GLP-1R cells; type: cell-based; details: compound 2 10 µM, 5 min
Method: as §1

[8] = biological target: T1, human GLP-1R; details: earlier studies; interpretation may be compromised by adverse effects of compound 2; ref [7]; cited from earlier work
Text: Given its physiological roles, the GLP-1R is targeted for treatment of type 2 diabetes. […] Such proteolysis is thought to remove biological activity.

[9] = system: GLP-1R; details: unclear whether additivity or true potentiation; ref [33]; cited from earlier work

T1 sequence (P43220 24-463): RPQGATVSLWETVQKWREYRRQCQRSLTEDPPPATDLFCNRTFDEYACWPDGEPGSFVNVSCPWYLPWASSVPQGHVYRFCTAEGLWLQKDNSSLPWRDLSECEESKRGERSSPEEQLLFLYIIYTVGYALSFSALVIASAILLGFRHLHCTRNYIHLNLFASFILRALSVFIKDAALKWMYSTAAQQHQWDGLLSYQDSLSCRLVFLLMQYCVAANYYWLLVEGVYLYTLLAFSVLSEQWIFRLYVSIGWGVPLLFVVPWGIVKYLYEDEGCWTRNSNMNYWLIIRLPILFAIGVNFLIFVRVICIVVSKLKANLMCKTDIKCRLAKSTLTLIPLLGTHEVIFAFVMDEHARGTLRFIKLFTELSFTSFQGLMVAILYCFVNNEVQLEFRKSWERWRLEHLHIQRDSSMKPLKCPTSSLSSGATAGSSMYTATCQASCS

In the case of `CC(C)(C)Nc1nc2cc(Cl)c(Cl)cc2nc1S(C)(=O)=O` [compound 2, 6,7-dichloro-2-methylsulfonyl-3-N-tert-butylaminoquinoxaline], the “effect on GLP-1 7–36 amide-mediated internalization of the GLP-1R” value [1] is listed as “can inhibit GLP-1 7–36 amide-mediated internalization of the GLP-1R”, the “fluorescence change sensitive to thapsigargin” value ([2]; compound 2, 10 µM) is listed as “did not cause an appreciable, thapsigargin-sensitive increase in fluorescence” and the “fluorescence change sensitive to thapsigargin” value ([2]; compound 2, 100 µM, with/without thapsigargin (2 µM, 5 min)) is listed as “a proportion of the change in fluorescence in response to compound 2 was blocked by thapsigargin”. The “effect on forskolin-stimulated cAMP generation” value [3] was “inability of compound 2 to influence cAMP generation”, the “effect at the GLP-1R (in words)” value ([4]; ago-allosteric modulator, ref [15]) was “not only enhancing affinity of the GLP-1R for GLP-1 but providing effective direct agonism” and the “effect on affinity for GLP-1 and on its potency or intrinsic activity” value ([4]; ref [7], [15]) was “modestly increases the affinity for GLP-1 it has little impact on potency or intrinsic activity”. The “interaction of compound 2 and GLP-1 7–36 amide on ERK activation” value ([4]; ref [16]) was “lack of interaction between compound 2 and GLP-1 7–36 amide on ERK activation”, the “ERK activation (INS-1E)” value [5] was “robust and approximately equivalent activation of ERK” and the “cAMP response in membranes (in words)” value [6] was “enhanced the ability of GLP-1 9–36 amide to increase cAMP”. The “cAMP level (membranes)” value ([6]; compound 2 alone, 3 µM, mean±s.e.m., n = 3) was 2623±269 pmol/mg protein, the ERK activation [7] was “response equivalent to the maximally effective concentration of GLP-1 7–36 amide (10 nM)” and the “effect on GLP-1 7–36 amide potency (cAMP)” value [8] was “actually reduced GLP-1 7–36 amide potency”. The “effect on activity of GLP-1 9–36 amide” value [9] was “may increase the activity of GLP-1 9–36 amide”.
